Measurements reported in patent publication US10820588B2, “Compositionally and morphologically controlled nanostructures for delivery of micronutrients and suppression of disease in agriculture” (Wisconsin Alumni Research Foundation, priority 2018, dated 2020).

What was measured:
Assay type in all cases: in vivo
[1] = system: F. oxysporum f. sp. niveum; assay: Greenhouse foliar spray, watermelon with or without Fusarium; conditions: disease conditions
Experimental: Watermelon seeds (Citrullus lanatus Thunb. cv Sugar Baby, Harris Seed Co., Rochester, N.Y.) were germinated in soilless potting mix (ProMix BX, Premier Hort Tech, Quakertown, Pa., USA) and fertilized once after three weeks with 40 mL of Peter's soluble 20-10-20 (N—P—K) fertilizer (R. J. Peters Inc., Allentown, Pa.). When plants reached the 3- to 4-leaf stage, uniform medium size plants were selected for NP exposure. […] For CuO NP, the suspension was sonicated using a probe sonicator for 2 min in an ice bath. […] One to two drops (1 ml/L) of Regulaid® nonionic surfactant were added into the suspensions prior to exposure. Polyvinylidene chloride film (Saran™ wrap) was fitted around the stem to prevent soil exposure to the NP suspensions. Although the primary purpose of this work was to compare different nanoscale materials, bulk CuO and CuSO4 (Sigma, St. Louis, Mo.) were used for additional comparative purposes in the greenhouse experiments. […]
F. oxysporum f. sp. niveum was prepared on Japanese millet, as previously described. […] The progress of disease as represented by the cumulative ratings of disease on replicate plants was plotted over time and the AUDPC was calculated using the trapezoid rule: AUDPC=Σ[Yi±Y(i±1)]/2×(t(i±1)−ti), where Yi=the disease rating at time ti. […]

[2] = system: Fusarium wilt of watermelon; assay: Field experiment Location 1, Fusarium wilt of watermelon
Experimental: (§1) Field experiments were conducted to evaluate if successful greenhouse results would translate to a field application. The following six treatments were established at two field locations (Hamden, Conn.—Location 1; and Griswold, Conn.—Location 2) to evaluate their effect on growth and Fusarium wilt of watermelon: CuO nanoparticles, Cu3(PO4)2.3H2O nanosheets, commercial powders of CuO and Cu3(PO4)2, CuSO4, and untreated controls. The commercial powders are not nanostructured as particles within the powders typically have a range of sizes from about 1 μm to 1 mm. Again, the primary purpose of this work was to compare the efficacy of the two nanoscale materials, and the suspensions of CuO and Cu3(PO4)2 commercial powders and the solution of CuSO4 were included only for comparison. It is noted that the CuO and Cu3(PO4)2 materials were used at concentrations where there were solid particles present in the liquid formulations, so those liquid formulations are best characterized as being suspensions with some dissolved ions. By contrast, because of its high solubility, CuSO4 in liquid is completely dissolved and thus is a true solution (only ions present and no remaining solid). […]
(§2) Field microplots were prepared in early June, 2017. […] Total plant biomass and fruit mass were determined at harvest, and select tissues were dried for analysis by ICP mass spectrometry (ICP-MS) as noted below.

[3] = system: Fusarium wilt of watermelon; assay: Field experiment Location 2, Fusarium wilt of watermelon; conditions: location 2, 400 mg/L, not statistically significant
Experimental: as §1, §2

## O=S(=O)([O-])[O-].[Cu+2] [CuSO4]
[1]
  effect on disease-induced decrease in vine length: had no impact
[2]; field, 400 mg/L
  disease result compared with the nanomaterial treatments: statistically equivalent
[2]; location 1, 400 mg/L
  increase of yield (total wet mass of fruit per plot) over the disease condition: no such benefit
[3]
  increase of fruit yield: 38.2%
